Measurements reported in ChEMBL document CHEMBL1144323, “Reversal of anticancer drug resistance by COTC based on intracellular glutathione and glyoxalase I” (Bioorg Med Chem Lett, 2005).

Legend:
Lactoylglutathione lyase = Lactoylglutathione lyase (Homo sapiens, UniProt Q04760); experiment: Inhibitory constant against Glyoxalase I
Homo sapiens = species: Homo sapiens; experiment: Effect of COTC on GSH level in human pancreatic adenocarcinoma cell was determined at 30 ug/mL of COTC; format: functional

Chain of Lactoylglutathione lyase (Q04760 whole entry): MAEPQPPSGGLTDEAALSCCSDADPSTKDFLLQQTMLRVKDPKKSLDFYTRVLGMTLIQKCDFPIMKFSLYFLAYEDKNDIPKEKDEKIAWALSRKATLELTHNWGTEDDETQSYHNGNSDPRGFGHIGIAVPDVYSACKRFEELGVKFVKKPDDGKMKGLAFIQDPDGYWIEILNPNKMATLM

Row | Compound | Ki (Lactoylglutathione lyase) | Decrease (Homo sapiens)
1 | NC(CCC(=O)NC(CSCC1=C[C@@H](O)[C@@H](O)[C@@H](O)C1=O)C(=O)NCC(=O)O)C(=O)O (some centres not stated) | 183 µM | 
2 | C/C=C/C(=O)OCC1=C[C@@H](O)[C@@H](O)[C@@H](O)C1=O |  | 40%
